Test [1] deals with T1, Ypk9 (Thermochaetoides thermophila, UniProt G0S7G9).
T1 construct: gene CTHT_0028100; full length, introns removed; N- or C-terminal TEV-G4S-GFP-His10 fusion, made in S. cerevisiae PAP1500; purified in DDM/CHS (ATPase assay) or reconstituted in nanodiscs (cryo-EM)
The test is described as follows: ATPase activity, malachite green phosphate release. The class given is biochemical. The conditions noted are these: 5 mM MgCl2, pH 7.0, 37 °C.

For test [2], the target named is T1, Ypk9. The test is described as follows: ATPase activity, malachite green phosphate release. The conditions noted are these: 6 mM SPM, 1 mM ATP, 5 mM MgCl2, 100 mM KCl, pH 7.0, 37 °C, DDM/CHS. Type of test: biochemical.
In test [3] the target is T1, Ypk9. The test is described as follows: cryo-EM structure (E2.Pi-SPM […] Å; E2.Pi-AlF/SPM […] Å; E2P* […] Å). The conditions noted are these: 1 mM SPM with 1 mM MgCl2, AlF or BeF3−; nanodiscs; luminal cleft between TM2, 4 and 6. Type of test: binding.

The structures appear in SMILES notation.

T1 sequence (G0S7G9 entry or part of it): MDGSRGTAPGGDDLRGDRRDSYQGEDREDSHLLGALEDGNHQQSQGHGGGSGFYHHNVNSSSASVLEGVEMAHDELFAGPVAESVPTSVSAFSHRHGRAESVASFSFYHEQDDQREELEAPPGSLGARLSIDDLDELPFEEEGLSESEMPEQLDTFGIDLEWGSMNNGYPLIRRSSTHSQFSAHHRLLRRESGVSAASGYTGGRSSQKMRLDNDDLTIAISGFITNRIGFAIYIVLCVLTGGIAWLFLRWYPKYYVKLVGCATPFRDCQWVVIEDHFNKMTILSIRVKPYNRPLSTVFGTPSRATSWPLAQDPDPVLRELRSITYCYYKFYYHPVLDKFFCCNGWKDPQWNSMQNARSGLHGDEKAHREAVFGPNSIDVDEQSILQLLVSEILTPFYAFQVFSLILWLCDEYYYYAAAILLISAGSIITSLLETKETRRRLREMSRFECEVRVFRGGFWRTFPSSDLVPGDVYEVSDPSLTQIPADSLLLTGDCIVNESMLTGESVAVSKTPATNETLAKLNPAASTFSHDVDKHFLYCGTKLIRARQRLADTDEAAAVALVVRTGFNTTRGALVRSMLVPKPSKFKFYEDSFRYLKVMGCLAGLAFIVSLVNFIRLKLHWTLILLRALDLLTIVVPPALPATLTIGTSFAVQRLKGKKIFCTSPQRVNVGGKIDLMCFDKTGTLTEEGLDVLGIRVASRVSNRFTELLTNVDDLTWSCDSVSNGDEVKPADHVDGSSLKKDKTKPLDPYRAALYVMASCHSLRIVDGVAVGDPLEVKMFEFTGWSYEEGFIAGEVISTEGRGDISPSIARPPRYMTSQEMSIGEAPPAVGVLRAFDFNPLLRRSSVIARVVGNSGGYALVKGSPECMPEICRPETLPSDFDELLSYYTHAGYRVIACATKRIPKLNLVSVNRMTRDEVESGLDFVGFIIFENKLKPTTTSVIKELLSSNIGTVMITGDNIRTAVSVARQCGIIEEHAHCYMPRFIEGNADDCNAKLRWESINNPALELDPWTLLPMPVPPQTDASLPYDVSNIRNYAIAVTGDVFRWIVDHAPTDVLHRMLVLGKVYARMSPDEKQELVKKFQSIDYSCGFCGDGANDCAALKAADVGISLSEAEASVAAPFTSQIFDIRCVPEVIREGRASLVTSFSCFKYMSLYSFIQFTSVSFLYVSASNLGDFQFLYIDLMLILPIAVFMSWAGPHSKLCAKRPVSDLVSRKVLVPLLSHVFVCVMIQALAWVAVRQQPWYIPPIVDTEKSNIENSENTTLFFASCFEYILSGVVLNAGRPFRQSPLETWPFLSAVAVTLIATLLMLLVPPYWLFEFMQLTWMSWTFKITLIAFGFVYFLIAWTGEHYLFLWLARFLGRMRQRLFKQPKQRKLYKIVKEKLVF

Consider `[F][Be-]([F])[F]` [BeF3−], for which the “inhibition at 1 mM” value in test [1] (1 mM BeF3−, 1 mM ATP, phosphate analogue) was “inhibited by the inhibitors BeF3^− and NaVO4^−”.
In the case of `[O]=[V]([OH])([OH])[OH]` [NaVO4−], in test [1] (1 mM NaVO4, 1 mM ATP), the “inhibition at 1 mM” value was “inhibited by the inhibitors BeF3^− and NaVO4^−”.
Turning to `NCCCNCCCCNCCCN` [spermine], the ATPase stimulation entry in test [2] is given as “ATPase activity of purified Ypk9 is stimulated by the polyamine spermine (SPM)”. Moreover, in test [3], the “cryo-EM structure (E2.Pi-SPM 3.5 Å; E2.Pi-AlF/SPM 3.4 Å; E2P* 3.7 Å)” value is “The cleft harbors an additional, elongated density compatible with the presence of SPM”.

Source of the values: paper PMC8233418, “Structure and transport mechanism of P5B-ATPases” (Nature Communications, 2021).
